# Key:
# [1] = Thermal stability of the product of each step (Table 1); assay type: physicochemical; settings: product of step (e) of the preferred method; cell text split over r17-r19: No decomposition observed
# Excerpt: Table 1 provides the reaction enthalpies, the purities (determined by HPLC and expressed as molar percentages) and the stabilities of the products of each step for this preferred method.
# [2] = as described by Bodineau et al. in Hypertension 2008 51, 1318-1325; cited from earlier work
# [3] = Stability of solid forms (neat, hydrates) under ambient conditions; assay type: physicochemical; settings: ambient conditions: 15-25° C., atmospheric pressure, relative humidity above 50%; hydrate mixtures evolve to the trihydrate within a few days
# Protocol: Any mixture of hydrates of compound I will evolve within a few days towards the trihydrate form in ambient conditions. Ambient conditions as used herein refer to a temperature between 15° C. and 25° C., at atmospheric pressure, and a relative humidity rate above 50%.
SMILES,Stability: decomposition [1],Anti-hypertensor efficacy [2],melting point [°C],Relative stability of solid form [3]
"N[C@@H](CCS(=O)(=O)O)CSSC[C@@H](N)CCS(=O)(=O)O [Compound I, (3S,3S′) 4,4′-disulfanediylbis(3-aminobutane 1-sulfonic acid)]",No,efficient anti-hypertensor agent,78,
"N[C@@H](CCS(=O)(=O)O)CSSC[C@@H](N)CCS(=O)(=O)O.O.O.O [compound I, (3H2O)]",,,,most stable form
